{"source": "patent US6399590B2", "about": "“Phosphoglycolipid and methods for its use” (Corixa Corporation, priority 1998, dated 2002)", "key": {"[1]": {"test_system": "canine model of repetitive transient regional ischemia", "experiment": "Myocardial stunning in dogs, repetitive transient regional ischemia", "type": "in vivo, dog", "experimental": "The compound of the subject invention provided both an acute and delayed protective effect against cardiac stunning in dogs. Pretreatment of dogs with the compound of the subject invention 10 minutes and 24 hours prior to ischemia produced significant improvement in the recovery of regional segment shortening (%SS) in the ischemic-reperfused myocardium of anesthetized dogs subjected to a multiple ischemia/reperfusion stunning protocol. Dogs were subjected to five 5-minute periods of coronary artery occlusion interspersed with 10 minute periods of reperfusion and finally followed by 2 hours of reperfusion. Regional systolic shortening in the subendocardium of the ischemic area was determined by sonomicrometry by placing a set of piezoelectric crystals in the subendocardium approximately 10-15 mm apart. Regional myocardial blood flow was determined by the radioactive microsphere technique during the first 5 min occlusion period and at the end of 2 h of reperfusion. Hemodynamics and blood gases were also measured at various times throughout the experiment. There was no significant differences between the control and pretreated groups in body weight, left ventricular weight, area at risk weight or the area at risk as a % of the left ventricle. […]"}, "[2]": {"test_system": "rabbits (fever response)", "experiment": "Three rabbit USP pyrogen test", "type": "in vivo", "set-up": "key to Average Temperature Rise: body temperature rise in °F (decreases recorded as zero)", "experimental": "The compound of the subject invention was evaluated for pyrogenicity using a standard three rabbit USP pyrogen test (NAMSA, Northwood Ohio) at dose levels between 10 and 1000 μg/kg. Three rabbits were intravenously administered the compound in 40% propylene glycol and 10% ethanol in water at varying doses diluted one to one in D5W prior to dosing. Each animal's body temperature was monitored over the course of 4 h. Pyrogenic doses and borderline pyrogenic doses were defined by established USP definitions. Any temperature decrease was recorded as a rise of zero. An individual rise in temperature of less than 0.5° F. was considered non-pyrogenic."}, "[3]": {"test_system": "pig model of regional myocardial ischemia/reperfusion", "experiment": "Infarct size in pigs, 40 min LAD occlusion and 3 h reperfusion", "type": "in vivo", "conditions": "i.v. 10 min prior to coronary artery occlusion (35 μg/kg); FIG. 4", "experimental": "To assess the efficacy of L34 to reduce infarct size, nine pigs were assigned in a non-blinded fashion to one of four groups: (1) control (n=2), (2) vehicle control (n4), (3) L34 (35 μg/kg) (n=2), (4) L34 (70 μg/kg) (n=1). L34 was formulated in 10% ethanol, 40% propylene glycol in Water for Injection. Blinded studies were additionally conducted with eight pigs randomly assigned to one of two treatment groups: (1) A (n=4), (2) B (n=4). Group A and B were either vehicle control or L34. Vehicle or drug injection was diluted one to one with 5% dextrose in Water for Injection prior to administration.\nMale pigs (15-20 kg) were anesthetized with ketamine (25 mg/kg, i.m.) and sodium pentobarbital (10 mg/kg, i.v.), intubated and mechanically ventilated with room air. Pigs were placed on a 37° C. circulating water heating pad. The left carotid artery of each animal was cannulated with 5Fr Millar catheter for measuring left ventricular pressure and the right carotid artery was cannulated with 24G I.V. catheter for sampling blood. A median sternotomy was performed and the pericardium was incised. […]\nFollowing 40 min of occlusion, the snare was released and the myocardium was reperfused for 3 h. The hemodynamic parameters at certain time points were recorded and blood samples were collected. […]"}}, "data": [{"compound": "CCCCCCCCCCCCCCCCCC(=O)O[C@H](CCCCCCCCCCC)CC(=O)N[C@H]1[C@H](OC[C@H]2OC(O)[C@H](NC(=O)C[C@@H](CCCCCCCCCCC)OC(=O)CCCCCCCCCCCCCCC)[C@@H](O)[C@@H]2O)O[C@H](CO)[C@@H](OP(=O)(O)O)[C@@H]1OC(=O)C[C@@H](CCCCCCCCCCC)OC(=O)CCCCCCCCCCCCC", "note": "(stereo partly drawn) [L34, 2-Deoxy-6-O-[2-deoxy-4-O-phosphono-3-O-[(R)-3-tetradecanoyloxytetradecanoyl]-2-[(R)-3-octadecanoyloxytetradecanoylamino]-β-D-glucopyranosyl]-2-[(R)-3-hexadecanoyloxytetradecanoylamino]-D-glucopyranose]", "values": [{"measurement": "recovery of regional wall motion (%SS) vs control group", "setting": "[1]; 24 h pretreatment, after 1st and 4th occlusion and all times of final 2 h reperfusion, FIG. 6", "value": "significantly greater recovery of regional wall motion (%SS)"}, {"measurement": "recovery of regional wall motion (%SS) vs control group", "setting": "[1]; pretreatment 10 min prior to first occlusion, after 1st, 2nd, 4th occlusion and all times of final 2 h reperfusion, FIG. 5", "value": "significantly greater recovery of regional wall motion (%SS)"}, {"measurement": "Average Temperature Rise", "setting": "[2]; L34 dose 10 μg/kg i.v.", "value": 0.14}, {"measurement": "Average Temperature Rise", "setting": "[2]; L34 dose 20 μg/kg i.v.", "value": 0.17}, {"measurement": "Average Temperature Rise", "setting": "[2]; L34 dose 30 μg/kg i.v.", "value": 0.17}, {"measurement": "Average Temperature Rise", "setting": "[2]; L34 dose 40 μg/kg i.v.", "value": 0.00}, {"measurement": "Average Temperature Rise", "setting": "[2]; L34 dose 60 μg/kg i.v.", "value": 0.10}, {"measurement": "Average Temperature Rise", "setting": "[2]; L34 dose 80 μg/kg i.v.", "value": 0.13}, {"measurement": "Average Temperature Rise", "setting": "[2]; L34 dose 120 μg/kg i.v.", "value": 0.23}, {"measurement": "Average Temperature Rise", "setting": "[2]; L34 dose 160 μg/kg i.v.", "value": 0.17}, {"measurement": "Average Temperature Rise", "setting": "[2]; L34 dose 240 μg/kg i.v.", "value": 0.00}, {"measurement": "Average Temperature Rise", "setting": "[2]; L34 dose 360 μg/kg i.v.", "value": 0.30}, {"measurement": "Average Temperature Rise", "setting": "[2]; L34 dose 480 μg/kg i.v.", "value": 0.06}, {"measurement": "Average Temperature Rise", "setting": "[2]; L34 dose 500 μg/kg i.v.", "value": 0.12}, {"measurement": "Average Temperature Rise", "setting": "[2]; L34 dose 1000 μg/kg i.v.", "value": 0.10}, {"measurement": "pyrogenicity", "setting": "[2]; i.v., dose levels between 10 and 1000 μg/kg", "value": "not pyrogenic at any of the doses tested"}, {"measurement": "reduction in infarct size expressed as % AN/AR in g compared to controls", "setting": "[3]", "value": 46, "unit": "%"}]}]}
